Results taken from patent publication US20210113687A1, “METHODS FOR TREATING INFLAMMATION” (NEW YORK UNIVERSITY, priority 2013, published 2021).

What was measured:
BMDM [1] = experiment: BMDM migration towards MCP-1 (xCelligence); type: cell-based, mouse; conditions: CoCl2-treated vs control macrophages
Description: Macrophage chemotaxis was measured using the Real-Time Cell Invasion and Migration xCelligence Assay System with monitoring every 3 min (Roche Applied Science). BMDM migration towards MCP-1 (100 ng/ml; R&D Systems) was measured in the presence or absence of oxLDL (50 μg/ml) and/or recombinant rat UNC5b-Fc chimera (1006-UN; R&D Systems) to block the effects of netrin-1. In a subset of experiments, cells were pre-treated with 0.1 mmol/L CoCl2 for 1 h prior to migration. J774 macrophage migration was carried out in the presence or absence of UNC5b-Fc chimera. Results of chemotaxis assays are representative of at least three independent experiments performed on triplicate samples.

BMDMs = experiment: qPCR of Sema3e mRNA in macrophages; type: cell-based, mouse; conditions: BMDM, CoCl2
Description: Total RNA was isolated from cells using TRIzol Reagent (Invitrogen). RNA (1 μg) was reverse-transcribed with an iScript cDNA Synthesis kit according to the manufacturer's instructions (Bio-Rad). KAPA SYBR FAST qPCR Master Mix was used for RT-PCR analysis. Primers used are listed in supplemental Table I. The change in mRNA expression was calculated by the comparative change in cycle method (ΔΔCT). All data were normalized to GAPDH or 28S and were expressed as fold change over the control.
RAW264.7 cells were obtained from American Type Culture Collection. Peritoneal macrophages (pMø) were collected from mice by peritoneal lavage 4 d after intraperitoneal injection of 3% (wt/vol) thioglycollate as previously described (Kunjathoor, et al., J Biol Chem., 2002, 277:49982-49988). Bone marrow derived macrophages (BMDMs) were prepared from mice as previously described (Kunjathoor, et al., J Biol Chem., 2002, 277:49982-49988). For gene expression experiments, macrophages were plated at 1×10^6 cells/well in 6 well plates. CoCl2 (0.1M solution) was obtained from Sigma and used at the concentrations indicated to mimic hypoxia. Oxidation or acetylation of LDL (50 μg/mL; Biomedical Technologies) was performed as described (Kunjathoor, et al., J Biol Chem., 2002, 277:49982-49988). Recombinant IL-4 and IFN-γ were purchased from PeproTech. Ultrapure LPS from E. coli K12 was purchased from InvivoGen.

BMDM [2] = experiment: qRT-PCR of BMDM (palmitate, cytokines, adipocyte conditioned media); type: cell-based, mouse; conditions: BMDMs, palmitate conjugated to BSA
Description: (§1) Real-time Quantitative RT-PCR Analysis RNA (0.5-1 μg) was reverse transcribed using iScript™ cDNA Synthesis Kit (Biorad) and RT-PCR analysis was conducted using kapa SYBR green Supermix (kappa syber) and a Mastercycler Realplex (Eppendorf) the primers used are listed. Fold change in mRNA expression was calculated using the comparative cycle method (ΔΔCt).
(§2) Cell culture. Primary bone marrow derived macrophage (BMDM) was prepared by flushing the bone marrow of the tibia and femur of 6-8 week old C57/B6 mice. The cells were grown in DMEM supplemented with 15% L929-conditioned media, 10% FBS and 1% penicillin/streptomycin for 7 days. BMDM were stimulated 250 pM palmitate conjugated with BSA or BSA as a control for 24 hours, or TNFα (10 ng/ml, 410-MT-010; R&D systems), IL-6 (40 nglml, 406-ML-005; R&D systems) and IL-4 (1 Onglml, 404-ML-010; R&D systems) for 24 h. In some assays, differentiated BMDM were treated with conditioned media from 3T3-L1 adipocytes differentiated as described (Lin, et al., J Biol Chem, 2005; 280:4617-4626) and treated with 250 pM palmitate conjugated with BSA or BSA for 24 hours. In certain experiments, anti-TNFα (0.4 μg/ml, AF-410-NA, R&D systems) or anti-IL-6 (0.025 μg/ml, MAB406; R&D systems) blocking antibody or IgG control (Normal Goat IgG: AB-108-C, Rat IgG1: MAB005; R&D systems) was added to conditioned media. Peritoneal macrophages were isolated as described (van Gils, et al., Nat Immunol, 2012; 13:136-143). Mice were injected intraperitoneally with 1 ml of 3% (wt/vol) thioglycolate to elicit sterile sterile peritonitis with macrophage numbers peaking on day 4. Cells were collected by lavage and used for migration assays.
Palmitate-BSA preparation. Sodium palmitate (P9767; Sigma Aldrich) was dissolved in sterile water in to make a 100-mM solution by alternating heating and vortexing until the palmitate was dissolved. Thu occurred once the solution reached 70 C. […]

[3] = system: human Unc5H2 promoter-luciferase reporter; experiment: Unc5H2 promoter-luciferase assay (Example 4); type: cell-based; conditions: HEK293 cells
Description: (§3) Promoter-Luciferase assays. HEK293T cells were transfected with human NTNI or Unc5H2 promoter-luciferase reporter constructs (SwitchGear Genomics) using Lipofectamine™ 2000 (11668-019, Invitrogen) After transfection, media was changed and cells were treated with palmitate or BSA for 24 hours, in the presence or absence of the NFkB inhibitor BAY 11-7082 (10 μmol/L). Luciferase activity was measured using the DUAL-Glo Luciferase Assay system (E1910, Promega).

peritoneal macrophages = experiment: Migration of palmitate-treated peritoneal macrophages to CCL19; type: cell-based, mouse; conditions: treatment with palmitate
Description: as §2, with “Mice were injected intraperitoneally with 1 ml of 3% (wt/vol) thioglycolate to elicit sterile sterile peritonitis with macrophage numbers peaking on day 4. Cells were collected by lavage and used for migration assays.” left out
Migration. The migration of ATM or peritoneal macrophages to CCL19 (500 ng/ml; R&D Systems) was assessed by the xCelligence Real-time Cell Invasion and Migration system (ACEA biosciences Inc) that monitored chemotaxis every 5 minutes for over 6 h. […]

3T3L1 adipocytes = experiment: qRT-PCR of 3T3L1 adipocytes; type: cell-based; conditions: palmitate treatment
Description: as §1
as §2, with “Peritoneal macrophages were isolated as described (van Gils, et al., Nat Immunol, 2012; 13:136-143). Mice were injected intraperitoneally with 1 ml of 3% (wt/vol) thioglycolate to elicit sterile sterile peritonitis with macrophage numbers peaking on day 4. Cells were collected by lavage and used for migration assays.” left out

BMDM [4] = experiment: netrin-1 ELISA of BMDM supernatants; type: cell-based, mouse
Description: as §2, with “Peritoneal macrophages were isolated as described (van Gils, et al., Nat Immunol, 2012; 13:136-143). Mice were injected intraperitoneally with 1 ml of 3% (wt/vol) thioglycolate to elicit sterile sterile peritonitis with macrophage numbers peaking on day 4. Cells were collected by lavage and used for migration assays.” left out
ELISA assay. Insulin (90080; crystal Chem Inc), adiponectin (ab108785; Abeam), FFA (SFA-1; Zen Bio), TNFa (88-7064-76; ebiosciences) and netrin-1 (E91827Mu; USCN life science Inc) levels were measured in the serum using mouse standards according to manufacturer's guidelines. Netrin-1 in human serum was measured using a human-specific netrin-1 ELISA from USCN Life Science Inc (700176; mybiosource).

[5] = system: human NTNI promoter-luciferase reporter; experiment: NTN1 promoter-luciferase assay (Example 4); type: cell-based; conditions: HEK293 cells
Description: as §3

activity of Unc5b-promoter luciferase reporter [3] | activity of Ntn1-promoter luciferase reporter [5] | Structure (SMILES) | ability of BMDM to migrate to MCP-1 (BMDM [1]) | macrophage Sema3e mRNA increase (BMDMs) | increase in Ntn1 mRNA (BMDM [2]) | increase in Unc5b mRNA (BMDM [2]) | migration of peritoneal macrophages to CCL19 (peritoneal macrophages) | Tnfa and Il6 mRNA in adipocytes (3T3L1 adipocytes) | secretion of netrin-1 by BMDM (ELISA) (BMDM [4])
 |  | [Cl][Co][Cl] [CoCl2, Cobalt chloride] | strongly impaired | 5 fold |  |  |  |  | 
induced the activity | induced the activity | CCCCCCCCCCCCCCCC(=O)[O-].[Na+] [palmitate, Sodium palmitate] |  |  | 5 fold | 3 fold | blocked the migration | induced expression | induced secretion
